Measured values reported in patent US9957288B2, “Pyrabactin analogues to modulate plant development” (Universiteit Gent, priority 2014, dated 2018).
Entries after “also recorded” stand apart in the source; their conditions may differ. Read-outs that look alike come from different tables or passages of the source.

Experiments:
[1] = system: Arabidopsis thaliana seeds; experiment: Arabidopsis thaliana seed germination assay; assay type: in vivo
[2] = system: Arabidopsis thaliana Columbia (Col0) seedlings; experiment: Primary root elongation of etiolated seedlings on compound medium; assay type: in vivo
[3] = system: etiolated Arabidopsis thaliana seedlings
[4] = system: Arabidopsis thaliana Columbia (Col0) seedlings; experiment: Lateral root initiation (lateral roots + lateral root primordia, number and density); assay type: in vivo
[5] = system: Arabidopsis thaliana seedlings
[6] = system: tobacco epidermal strips; experiment: Stomatal closure assay on epidermal strips; assay type: cell-based, Nicotiana tabacum
[7] = system: Nicotiana benthamiana leaves; experiment: Leaf dehydration assay (weight loss of pre-treated detached leaves in dry air flow); assay type: in vivo; conditions: for % weight loss (average): average of 5-10 leaves, control 29.51%; for effect on leaf weight loss / transpiration: pre-treatment: ABA 10 and 100 μM, analogues 10 μM, 6 h dry air flow
[8] = 10 μM, compared with control not-treated seeds
[9] = primary root, 10 μM, compared with control not-treated seedlings
[10] = adventitious root, 10 μM, compared with control not-treated seedlings
[11] = 13 d old etiolated seedlings, 10 μM
[12] = lateral root, 10 μM, compared with control not-treated seedlings
[13] = 10 μM, compared with control not-treated epidermal strips

## CC1=CC(=O)CC(C)(C)[C@@]1(O)/C=C/C(C)=C\C(=O)O [ABA, Abscisic acid, reference compound]
[1]; in vivo
  Seed germination: +++
  effect on seed germination: inhibited seed germination stronger than pyrabactin
[2]; in vivo
  PR: +++
  reduction of primary root length: 5 fold
[3]; in vivo
  AR: 0
  effect on adventitious root formation: not affected
[4]; in vivo
  LR: +++
  effect on LR+ LRP density (per cm primary root): reduced the number of roots per cm primary root
  effect on number of LR+ LRP (lateral root initiation): strongly reduced the number of LR+ LRP
[5]; in vivo
  Shoot: +++
[6]
  Stomata: +++
  effect on stomatal aperture: rapidly induces stomatal closure
  relative stomatal aperture: 40%
  time to 50% of closure of stomata: ≤ 10 min
[7]; leaves pre-treated with 10 μM
  % weight loss (average): 18.54%
[7]; leaves pre-treated with 100 μM
  % weight loss (average): 16.99%
[7]
  effect on leaf weight loss / transpiration: significantly less weight loss

## CCOP(=O)(NCc1ccccn1)c1ccc(Br)c2ccccc12 (stereo not shown) [Analogue E1, Ethyl N-(pyridin-2-ylmethyl)-P-(4-bromonapht-1-yl)phosphonamidate]
[1]; in vivo
  Seed germination: 0
[2]; in vivo
  PR: +
  effect on primary root growth: modest inhibitors of primary root elongation
[3]; in vivo
  AR: −
[4]; in vivo
  LR: ++
  effect on LR+ LRP density (per cm primary root): strong density reduction (even stronger than ABA)
  effect on number of LR+ LRP (lateral root initiation): strong inhibitors
[5]; in vivo
  Shoot: 0
[6]
  Stomata: −
  effect on stomatal aperture: did not cause closure of the stomata and even induced the opening
[7]
  effect on leaf weight loss / transpiration: reduction of transpiration

## CCOP(=O)(NCc1ccccn1)c1cccc2ccccc12 (stereo not shown) [Analogue E9, Ethyl N-(pyridin-2-ylmethyl)-P-(napht-1-yl)phosphonamidate]
[1]; in vivo
  Seed germination: 0
[2]; in vivo
  PR: 0
  effect on primary root growth: modest inhibitors of primary root elongation
[3]; in vivo
  AR: −
[4]; in vivo
  LR: +
  effect on LR+ LRP density (per cm primary root): reduced the numbers of LR+ LRP similarly to ABA
  effect on number of LR+ LRP (lateral root initiation): modest to weak inhibitors of lateral root formation
[5]; in vivo
  Shoot: 0
[6]
  Stomata: 0
  effect on stomatal aperture: did not affect the size of the stomatal aperture
[7]
  effect on leaf weight loss / transpiration: reduction of transpiration

## O=P(O)(NCc1ccccn1)c1ccc(Br)c2ccccc12 [Analogue E10, Hydrogen N-(pyridin-2-ylmethyl)-P-(4-bromonapht-1-yl)phosphonamidate]
[1]; [8]
  Seed germination: 0
[2]; 10 μM
  effect on primary root growth: modest inhibitors of primary root elongation
[2]; [9]
  PR: +
[3]; [10]
  AR: −
[4]; [11]
  effect on LR+ LRP density (per cm primary root): reduced the numbers of LR+ LRP similarly to ABA
  effect on number of LR+ LRP (lateral root initiation): modest to weak inhibitors of lateral root formation
[4]; [12]
  LR: +
[5]; in vivo
  Shoot: 0
[6]; 10 μM
  effect on stomatal aperture: intermediate stomatal closure
[6]; [13]
  Stomata: +
[7]
  effect on leaf weight loss / transpiration: reduction of transpiration

## O=S(=O)(NCc1ccccn1)c1ccc(Br)c2ccccc12 [Pyrabactin, pyrabactin]
[1]; [8]
  Seed germination: ++
[1]; different concentrations, gradual and dose-dependent
  effect on seed germination: inhibited seed germination
[2]; 10 μM
  reduction of primary root length: 2.5 fold
[2]; [9]
  PR: ++
[3]; 10 μM
  effect on adventitious root formation: reduced the formation of these roots
[3]; [10]
  AR: +++
[4]; [11]
  effect on LR+ LRP density (per cm primary root): significantly increased the LR+ LRP density
  effect on number of LR+ LRP (lateral root initiation): only did moderately affect lateral root initiation
[4]; [12]
  LR: ++
[5]; 10 μM
  effect on shoot development: leaf size was also significantly reduced
[5]; 10 μM, compared with control not-treated seedlings
  Shoot: ++
[5]; 10 μM, listed as pyrabactin
  effect on shoot development: seedlings with a smaller shoot than control seedlings
[6]; [13]
  Stomata: +
[6]; 10 μM, listed as pyrabactin
  effect on stomatal aperture: induced stomatal closure, rapidly but to a much lower degree than ABA; also recorded: demonstrated an effect on the stomata
